Measured values published in patent US4017596A, “Radiopharmaceutical chelates and method of external imaging” (priority 1975, dated 1977).

Tests used:
[1] = Scintillation camera imaging and blood level in dogs after intravenous injection; details: dog
Protocol: One animal was selected for imaging at various time intervals utilizing a scintillation camera. […] Sufficiet cholecystokinin was injected into the dog intravenously to effect contraction of the gall bladder. […] The images were obtained using a gamma scintillation camera (Pho Gamma III) and a parallel hole high sensitivity collimator.

[2] = Imaging in dog before and after plasma loading with bromosulphthalein (BSP), compared with I-131 Rose Bengal
[3] = Biodistribution in mice after intravenous injection (organ counting in scintillation counter); type: in vivo; details: 25 g mice; i.v.; 60 minutes

Cc1cccc(C)c1NC(=O)CN(CC(=O)O)CC(=O)O (99mTc complex, metal not drawn) [Example 2]
time to leaving the gall bladder after cholecystokinin injection ([1]; after i.v. cholecystokinin, FIG. 4 Frame E): ≤ 1 min
time at which the liver is clearly identified ([1]; i.v. 4 mCi, FIG. 3 Frame A): 5 min
uptake by the liver ([1]; i.v. 4 mCi, anterior imaging, FIG. 3): rapid uptake by the liver
injected dose remaining in the blood ([1]; i.v. 4 mCi, at 10 minutes): Less than 10%
clearance from the liver / accumulation in gall bladder ([1]; i.v. 4 mCi, images at 25, 40 and 50 minutes): clearance from the liver is demonstrated with progressive accumulation of the radiopharmaceutical in the gall bladder
injected dose remaining in the blood (second value of "10% and 3% ... respectively") ([1]; i.v. 4 mCi, only "10 minutes" printed, second time missing): < 3%
effect of BSP loading on plasma clearance or imaging characteristics ([2]; dog, BSP levels of 4-7 mg percent to simulate hyperbilirubinemia): did not substantially alter the plasma clearance or imaging characteristics
image quality compared to I-131 Rose Bengal ([2]; same dog, FIG. 5): much better quality

Oc1cccc2cccnc12 [Example 8, technetium-99m chelate of 8-hyroxyquinoline]
injected dose in the intestines [3]: 20%
injected dose in the liver [3]: 40%

Oc1cccc2cccnc12 [Example 9, gallium-67 chelate of 8-hydroxyquinoline]
injected dose in the blood [3]: 20%
injected dose in the intestines [3]: 13%
injected dose in the liver [3]: 25%
